Test results from PubChem BioAssay (NCI).
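Cells were grown in 96-well plates and exposed to each compound for 48 hours at five concentrations; endpoints were interpolated linearly between bracketing concentrations, or set to the highest concentration if not reached. TGI denotes the concentration required for complete inhibition of growth.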

Legend:
Assay in all cases: NCI tumour cell line growth inhibition, 48 h
[1] = tested on: MDA-N
[2] = tested on: SK-MEL-5 melanoma
[3] = tested on: BT-549 breast
[4] = tested on: SK-MEL-2 melanoma
[5] = tested on: M14 melanoma
[6] = tested on: SF-539 CNS
[7] = tested on: SN12C renal
[8] = tested on: A498 renal
[9] = tested on: EKVX NSCLC
[10] = tested on: HOP-92 NSCLC
[11] = tested on: K-562 leukemia
[12] = tested on: SF-268 CNS
[13] = tested on: LOX IMVI melanoma
[14] = tested on: SF-295 CNS
[15] = tested on: HCT-15 colon
[16] = tested on: SK-MEL-28 melanoma
[17] = tested on: UO-31 renal
[18] = tested on: HT29 colon
[19] = tested on: OVCAR-3 ovarian
[20] = tested on: ACHN renal

SMILES	TGI [1] [µM]	TGI [2] [µM]	TGI [3] [µM]	TGI [4] [µM]	TGI [5] [µM]	TGI [6] [µM]	TGI [7] [µM]	TGI [8] [µM]	TGI [9] [µM]	TGI [10] [µM]	TGI [11] [µM]	TGI [12] [µM]	TGI [13] [µM]	TGI [14] [µM]	TGI [15] [µM]	TGI [16] [µM]	TGI [17] [µM]	TGI [18] [µM]	TGI [19] [µM]	TGI [20] [µM]
CN(C)c1ccc(/C=c2/c3ccccc3n3nc4ccccc4c23)cc1	33.6	73.5	71.5	> 100	> 100	84.8	> 100	67	> 100	90.7	> 100	> 100	> 100	70.6	> 100	> 100	> 100	> 100	> 100	> 100
COc1ccc(/C=C/C(=O)/C=C/c2ccc(OC)cc2)cc1	49	> 100	> 100	> 100	57.2	72.7	> 100	> 100	> 100	80.6	> 100	> 100	> 100	> 100	> 100	> 100	> 100	> 100	> 100	> 100
COc1cc(NC(C)=O)ccc1C(=O)N/N=C/c1ccc(Cl)cc1Cl	72.7	> 100	> 100	51.3	> 100	> 100	64.6	61	> 100	> 100	> 100	> 100	> 100	> 100	> 100	> 100	> 100	> 100	> 100	> 100
c1cc(Sc2nc(Sc3ccncc3)nc(Sc3ccncc3)n2)ccn1	> 100	> 100	> 100	> 100	> 100	> 100	> 100	> 100	> 100	> 100	> 100	> 100	> 100	> 100	> 100	> 100	> 100	> 100	> 100	> 100
O=C1c2ccccc2C(=O)[C@@]23O[C@@]12C1(Oc2cccc4cccc(c24)O1)[C@@H]1O[C@@H]1[C@@H]3O	32	> 64.3	11.1	42.1	23.4	9.56	26.1	> 100	54.2	31.9	> 29.8	25.4	16.5	26	17.6	> 54.1	24.4	15.2	12.6	27.7
CC(C)(C)c1cc(C(C)(C)C)c(SS(=O)(=O)O)c(O)c1O	> 100	> 100	> 100	94.5	> 100	37.4	> 100	> 100	> 100	> 100	> 100	> 100	> 100	> 100	> 100	> 100	> 100	> 100	> 100	> 100
O=c1[nH]/c(=C/c2ccc(OCc3ccccc3)cn2)c(=O)[nH]/c1=C/c1ccc([N+](=O)[O-])cc1	> 100	> 100	> 100	> 100	> 100	> 100	> 100	> 84.3	> 100	> 100	> 100	> 100	> 100	> 100	> 100	> 100	> 100	> 100	> 100	> 100
COc1cc(CNc2ccc3nc4n(c(=O)c3c2)CCCCC4)cc(OC)c1OC	> 100	50.8	71.6	> 100	> 100	> 100	> 100	> 100	> 100	> 100	> 100	> 100	> 100	> 100	> 100	> 100	> 100	> 100	> 100	> 100
